These results are taken from ChEMBL document CHEMBL1150603, “Ecteinascidins 770 and 786 from the Thai tunicate Ecteinascidia thurstoni” (J Nat Prod, 2002).

In general, pIC50 refers to −log10 of the IC50, conventionally taken in molar units. The low end stands for a high IC50, the high end for a low IC50. Broadly, the MIC is the smallest concentration in the dilution series that meets the test's criterion for growth inhibition. The low end stands for greater potency, the high end for weaker potency.

pIC50: −log10 of the molar value. ≈ marks a conversion by molar mass, not a printed value.

For one assay, the system named is KB. As to the kind of experiment: Cytotoxicity against human KB cells. Type of assay: functional, cell-based.
Assay [1] has as its system Mycobacterium tuberculosis. The assay is described as follows: Antitubercular activity against Mycobacterium tuberculosis H37Ra. The format is functional.
A short description of assay [2]: Cytotoxicity against breast cancer cells. Type of assay: functional, cell-based. The settings on record: Cancer cell lines.

On to `COc1cc2c(cc1O)CCN[C@]21CS[C@@H]2c3c(OC(C)=O)c(C)c4c(c3[C@H](COC1=O)N1[C@@H]2[C@H]2c3c(cc(C)c(OC)c3O)C[C@@H]([C@@H]1C#N)N2C)OCO4` [ECTEINASCIDIN 770], for which the negative-log IC50 (pIC50) is 10.47 in the assay on KB and 8.60 in assay [2]. The same compound returned an MIC in assay [1] of 0.13 µM (≈ 0.1 µg/mL).

As to `COc1cc2c(cc1O)CCN[C@]21C[S+]([O-])[C@@H]2c3c(OC(C)=O)c(C)c4c(c3[C@H](COC1=O)N1[C@@H]2[C@@H]2c3c(cc(C)c(OC)c3O)C[C@@H]([C@@H]1C#N)N2C)OCO4` (stereo partly specified) [ECTEINASCIDIN 786], the pIC50 in the assay on KB is 9.82; in assay [2], 8.12. Also, the MIC in assay [1] was determined as 2 µM (≈ 1.57 µg/mL).
